Results taken from patent US20170064988A1, “Delivery Systems for Natural High-Potency Sweetener Compositions, Methods for Their Formulation, and Uses” (The Coca-Cola Company, priority 2007, published 2017).

Tests used:
[1] = Dissolution of spray-dried amorphous rebaudioside A in water; format: physicochemical; settings: room temperature, in 5 minutes
Experimental: A solution of rebaudioside A (>97% pure by HPLC) was prepared in double distilled water (12.5 gm in 50 mL, 25% concentration) by stirring the mixture at 40° C. for 5 minutes. An amorphous rebaudioside form of A was formed by immediately using the clear solution for spray drying with the Lab-Plant spray drier SD-04 instrument (Lab-Plant Ltd., West Yorkshire, U.K.). The solution was fed through the feed pump into the nozzle atomizer which atomized it into a spray of droplets with the help of a constant flow of nitrogen/air. […] This dry powder (11-12 g, H2O 6.74%) was discharged continuously from the drying chamber and was collected in a bottle. The material was dissolved rapidly in water at room temperature up to a concentration of 35.0% (w/v) in 5 minutes.

[2] = Rate of dissolution of rebaudioside A polymorphic and amorphous forms in water; format: physicochemical

Structure (SMILES) | Concentration dissolved rapidly in water [1] | Rate of dissolution in H2O at 25° C. (grade in words) [2] | Rate of dissolution in H2O at 25° C., amount dissolved in 5 minutes [2] | Rate of dissolution in H2O at 25° C., amount dissolved in 60 minutes ([2]; in 60 minutes)
C=C1C[C@@]23CC[C@H]4[C@@](C)(CCC[C@@]4(C)C(=O)O[C@@H]4O[C@H](CO)[C@@H](O)[C@H](O)[C@H]4O)[C@@H]2CC[C@]1(O[C@@H]1O[C@H](CO)[C@@H](O)[C@H](O[C@@H]2O[C@H](CO)[C@@H](O)[C@H](O)[C@H]2O)[C@H]1O[C@@H]1O[C@H](CO)[C@@H](O)[C@H](O)[C@H]1O)C3 [Form 3, rebaudioside A] | – | High | (>30% in | –
C=C1C[C@@]23CC[C@H]4[C@@](C)(CCC[C@@]4(C)C(=O)O[C@@H]4O[C@H](CO)[C@@H](O)[C@H](O)[C@H]4O)[C@@H]2CC[C@]1(O[C@@H]1O[C@H](CO)[C@@H](O)[C@H](O[C@@H]2O[C@H](CO)[C@@H](O)[C@H](O)[C@H]2O)[C@H]1O[C@@H]1O[C@H](CO)[C@@H](O)[C@H](O)[C@H]1O)C3 [Form 1, rebaudioside A] | – | Very low | – | (<0.2% in

Next, values leading:

Concentration dissolved rapidly in water [1] | Rate of dissolution in H2O at 25° C. (grade in words) [2] | Rate of dissolution in H2O at 25° C., amount dissolved in 5 minutes [2] | Rate of dissolution in H2O at 25° C., amount dissolved in 60 minutes ([2]; in 60 minutes) | Structure (SMILES)
≤ 35.0 % (w/v) | – | – | – | C=C1C[C@@]23CC[C@H]4[C@@](C)(CCC[C@@]4(C)C(=O)O[C@@H]4O[C@H](CO)[C@@H](O)[C@H](O)[C@H]4O)[C@@H]2CC[C@]1(O[C@@H]1O[C@H](CO)[C@@H](O)[C@H](O[C@@H]2O[C@H](CO)[C@@H](O)[C@H](O)[C@H]2O)[C@H]1O[C@@H]1O[C@H](CO)[C@@H](O)[C@H](O)[C@H]1O)C3 [Example F, rebaudioside A]
– | Intermediate | (<30% in | – | C=C1C[C@@]23CC[C@H]4[C@@](C)(CCC[C@@]4(C)C(=O)O[C@@H]4O[C@H](CO)[C@@H](O)[C@H](O)[C@H]4O)[C@@H]2CC[C@]1(O[C@@H]1O[C@H](CO)[C@@H](O)[C@H](O[C@@H]2O[C@H](CO)[C@@H](O)[C@H](O)[C@H]2O)[C@H]1O[C@@H]1O[C@H](CO)[C@@H](O)[C@H](O)[C@H]1O)C3 [Form 2, rebaudioside A]
– | High | (>35% in | – | C=C1C[C@@]23CC[C@H]4[C@@](C)(CCC[C@@]4(C)C(=O)O[C@@H]4O[C@H](CO)[C@@H](O)[C@H](O)[C@H]4O)[C@@H]2CC[C@]1(O[C@@H]1O[C@H](CO)[C@@H](O)[C@H](O[C@@H]2O[C@H](CO)[C@@H](O)[C@H](O)[C@H]2O)[C@H]1O[C@@H]1O[C@H](CO)[C@@H](O)[C@H](O)[C@H]1O)C3 [Form 4, rebaudioside A]
